This passage reports EC50, IC50 and CC50 results from ChEMBL document CHEMBL1201862, “PubChem BioAssay data set” (2004).

SMILES strings stand for the structures. Active and inactive are the calls of the source.

The target in assay [1] is T1, Zinc finger protein mex-5 (Caenorhabditis elegans, UniProt Q9XUB2).
T1 sequence (Q9XUB2 whole entry): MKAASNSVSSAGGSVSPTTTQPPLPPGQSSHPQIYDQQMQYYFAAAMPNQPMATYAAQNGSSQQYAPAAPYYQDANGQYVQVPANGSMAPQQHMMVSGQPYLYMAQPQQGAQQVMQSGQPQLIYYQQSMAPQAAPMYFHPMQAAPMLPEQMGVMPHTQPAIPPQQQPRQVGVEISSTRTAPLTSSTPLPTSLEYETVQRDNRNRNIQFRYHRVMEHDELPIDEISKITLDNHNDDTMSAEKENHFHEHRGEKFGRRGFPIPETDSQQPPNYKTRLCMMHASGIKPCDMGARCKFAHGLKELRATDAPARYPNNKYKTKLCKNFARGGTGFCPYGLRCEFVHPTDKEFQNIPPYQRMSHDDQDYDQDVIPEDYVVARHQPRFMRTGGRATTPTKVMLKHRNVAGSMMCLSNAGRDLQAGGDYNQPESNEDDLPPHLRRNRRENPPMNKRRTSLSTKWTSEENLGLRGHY
The experiment in a line: potency of MEX-5 RNA-binding blockers – biochemical, C. elegans, fluorescence polarization, dose response (AID 1960). Background: Polarisation of emitted light reports the rotation of a fluorescent probe.

The target in assay [2] is T2, RNA-binding protein pos-1 (Caenorhabditis elegans, UniProt G5EF15).
T2 sequence (G5EF15 whole entry): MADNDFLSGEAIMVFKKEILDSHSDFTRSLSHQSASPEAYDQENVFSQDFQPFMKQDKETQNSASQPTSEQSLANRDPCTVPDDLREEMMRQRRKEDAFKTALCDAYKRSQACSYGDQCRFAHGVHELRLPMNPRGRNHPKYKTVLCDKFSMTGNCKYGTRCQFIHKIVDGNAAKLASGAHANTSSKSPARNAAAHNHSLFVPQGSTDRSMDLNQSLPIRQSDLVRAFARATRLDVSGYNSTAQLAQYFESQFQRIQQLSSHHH
The experiment in a line: disruptors of C. elegans POS-1 RNA interaction – biochemical, fluorescence polarization, dose response (AID 1964).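 Further: purified POS-1 fused to maltose binding protein made in E. coli; potency of compounds blocking POS-1 binding to fluorescent RNA.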

The target of assay [3] is T3, Endoribonuclease toxin MazF (Escherichia coli K-12, UniProt P0AE70).
T3 sequence (P0AE70 whole entry): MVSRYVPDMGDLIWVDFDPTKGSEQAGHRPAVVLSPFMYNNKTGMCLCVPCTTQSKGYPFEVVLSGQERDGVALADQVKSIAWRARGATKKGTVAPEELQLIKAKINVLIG
Briefly: substrate-only fluorescence increase artefacts – biochemical, single-stranded RNase substrate, counter-screen for MazEF activator project, dose response (AID 588502). It counts as functional. (In general: Counterscreens check selectivity or assay interference.)

Assay [4] deals with T3, Endoribonuclease toxin MazF. Briefly: activation of MazEF endoribonuclease cleavage – biochemical, fluorescence, single-stranded RNA substrate, uHTS hits, dose response (AID 588481). It counts as functional.
For another assay, the system named is HEK293. The experiment in a line: cells. As to conditions: Homo sapiens. Type of assay: functional, cell-based.
In assay [5] the target is T4, Nuclear receptor subfamily 0 group B member 1 (Homo sapiens, UniProt P51843).
T4 sequence (P51843 whole entry): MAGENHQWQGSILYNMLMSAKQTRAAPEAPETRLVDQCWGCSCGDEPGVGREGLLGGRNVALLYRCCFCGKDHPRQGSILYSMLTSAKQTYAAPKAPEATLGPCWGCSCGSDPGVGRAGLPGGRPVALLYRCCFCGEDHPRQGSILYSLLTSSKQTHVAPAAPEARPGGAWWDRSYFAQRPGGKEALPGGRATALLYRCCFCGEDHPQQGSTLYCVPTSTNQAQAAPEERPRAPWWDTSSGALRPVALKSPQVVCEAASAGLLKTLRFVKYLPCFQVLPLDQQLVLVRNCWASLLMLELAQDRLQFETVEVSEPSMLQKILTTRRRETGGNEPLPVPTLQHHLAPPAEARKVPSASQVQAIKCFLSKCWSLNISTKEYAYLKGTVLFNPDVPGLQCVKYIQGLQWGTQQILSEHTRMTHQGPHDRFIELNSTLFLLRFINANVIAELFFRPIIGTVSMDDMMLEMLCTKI
The experiment in a line: Luminescence-based cell-based high throughput dose response assay for inhibitors of the orphan nuclear receptor subfamily 0, group B, member 1 (DAX1; NR0B1). [Related pubchem assays (depositor defined):AID504766, AID504790]. Type of assay: functional.

Assay [6] addresses T5, Short transient receptor potential channel 4 (Mus musculus, UniProt Q9QUQ5).
T5 sequence (Q9QUQ5 whole entry): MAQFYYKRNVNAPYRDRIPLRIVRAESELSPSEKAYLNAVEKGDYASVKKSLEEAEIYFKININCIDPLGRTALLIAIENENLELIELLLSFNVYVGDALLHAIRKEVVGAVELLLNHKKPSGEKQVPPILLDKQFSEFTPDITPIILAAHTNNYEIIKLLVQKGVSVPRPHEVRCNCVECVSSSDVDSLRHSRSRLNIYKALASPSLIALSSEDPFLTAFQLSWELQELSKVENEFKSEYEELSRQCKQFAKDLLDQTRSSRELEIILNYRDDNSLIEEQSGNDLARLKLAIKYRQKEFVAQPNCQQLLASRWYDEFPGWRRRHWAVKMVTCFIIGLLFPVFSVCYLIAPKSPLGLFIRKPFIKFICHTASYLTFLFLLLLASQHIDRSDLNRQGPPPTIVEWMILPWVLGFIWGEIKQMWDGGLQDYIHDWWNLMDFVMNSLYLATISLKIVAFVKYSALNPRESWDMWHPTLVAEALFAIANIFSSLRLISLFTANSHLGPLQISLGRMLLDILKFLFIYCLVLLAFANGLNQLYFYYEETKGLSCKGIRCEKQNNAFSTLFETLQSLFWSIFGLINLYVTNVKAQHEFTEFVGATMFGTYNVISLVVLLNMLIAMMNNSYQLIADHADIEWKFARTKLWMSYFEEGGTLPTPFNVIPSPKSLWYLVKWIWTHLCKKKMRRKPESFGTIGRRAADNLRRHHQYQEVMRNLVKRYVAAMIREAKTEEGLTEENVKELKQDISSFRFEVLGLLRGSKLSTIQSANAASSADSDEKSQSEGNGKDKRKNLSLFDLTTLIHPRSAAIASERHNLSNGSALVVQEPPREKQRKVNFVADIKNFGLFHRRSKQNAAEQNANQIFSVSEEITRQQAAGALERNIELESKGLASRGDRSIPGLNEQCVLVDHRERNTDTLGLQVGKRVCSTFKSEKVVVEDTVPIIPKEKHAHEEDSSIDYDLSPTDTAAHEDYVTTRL
Briefly: calcium entry via TRPC4 opening agents – cell-based, HEK293 TRPC4/mu-opioid, Fluo-4 calcium, dose response (AID 434937). Type of assay: functional.

The target in the next assay is T6, Protein skinhead-1 (Caenorhabditis elegans, UniProt P34707).
T6 sequence (P34707 whole entry): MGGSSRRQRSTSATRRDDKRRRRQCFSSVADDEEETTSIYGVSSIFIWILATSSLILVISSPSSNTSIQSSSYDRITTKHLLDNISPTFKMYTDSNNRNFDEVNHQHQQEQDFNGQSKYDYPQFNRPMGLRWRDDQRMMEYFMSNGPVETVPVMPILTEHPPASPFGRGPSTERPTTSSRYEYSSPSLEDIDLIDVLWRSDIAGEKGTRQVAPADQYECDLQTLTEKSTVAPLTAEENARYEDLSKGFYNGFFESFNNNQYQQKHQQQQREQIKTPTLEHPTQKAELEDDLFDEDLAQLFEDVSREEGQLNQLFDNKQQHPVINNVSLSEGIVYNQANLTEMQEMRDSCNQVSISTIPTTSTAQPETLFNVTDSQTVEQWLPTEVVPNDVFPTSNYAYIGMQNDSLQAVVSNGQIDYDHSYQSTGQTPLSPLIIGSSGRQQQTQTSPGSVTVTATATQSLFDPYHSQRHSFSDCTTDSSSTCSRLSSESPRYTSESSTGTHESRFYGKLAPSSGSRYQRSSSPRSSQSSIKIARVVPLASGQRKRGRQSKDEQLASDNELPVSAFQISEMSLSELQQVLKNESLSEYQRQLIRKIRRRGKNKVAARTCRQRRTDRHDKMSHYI
Type of assay: functional.

A further assay concerns the target Nonstructural protein 1 (Influenza A virus, UniProt Q194T2). It counts as functional, Influenza A virus (A/California/07/2009(H1N1)).
Assay [7] can be described thus: HEK-293T viability loss after treatment – luminescence, T-cell screen hits, cytotoxicity control for TCR NF-kB inhibitor project, dose response (AID 489026).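 Further: cells exposed to compound about 14 hours before the viability readout.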 It counts as functional, cell-based.
A short description of assay [8]: luciferase reporter signal suppression in cells – H4 neuroglioma cells, luminescence, dose response (AID 1990). It counts as functional, cell-based. (In a reporter assay the amount or activity of a reporter protein is the signal.)
Assay [9] is described as follows: Luminescence Cell-Based Dose Response HTS to Identify Inhibitors of 5'UTR Stem-Loop Driven Prion Protein mRNA Translation in H4 Neuroglioblastoma Cells. [Related pubchem assays: 1827 (Project Summary), 1813 (Primary HTS)]. It counts as functional.
A short description of assay [10]: alpha-synuclein stem-loop luciferase translation blockers – H4 neuroglioma cells, luminescence, confirmation (AID 1988). Type of assay: functional, cell-based.
Assay [11] is described as follows: DRD fibroblast viability loss – cell-based, non-viral oncogenic, luminescence, dose response (AID 1934). Type of assay: functional. To be noted: Homo sapiens.
Assay [12] relates to BJ. The experiment in a line: BJ-TERT fibroblast viability loss – cell-based, RAS-independent, luminescence, dose response (AID 1933). As to conditions: Homo sapiens. Type of assay: functional.
The subject of assay [13] is BJ. Briefly: BJ-TERT-LT-ST fibroblast viability loss – cell-based, RAS-independent, luminescence, dose response (AID 1935).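 Further: BJ fibroblasts immortalized with TERT plus LT and ST oncogenes.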 Type of assay: functional. As to conditions: Homo sapiens.
For assay [14], the system named is BJ. The experiment in a line: cells. To be noted: Homo sapiens. Type of assay: functional, cell-based.
For a further assay, the system named is Vero. The experiment in a line: cells. Type of assay: functional. To be noted: Chlorocebus sabaeus.
Assay [15] has as its target T7, Fatty acid synthase (Homo sapiens, UniProt P49327). Briefly: inhibition of human FAS-TE enzyme activity – biochemical, endpoint fluorescence intensity, uHTS hits, dose response (AID 624327).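 Further: fluorescence from hydrolysis of an O-methyl fluorescein acyl ester substrate by the enzyme.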 It counts as functional.
The target in assay [16] is T7, Fatty acid synthase. Briefly: inhibition of human FAS-TE enzyme activity – biochemical, kinetic fluorescence intensity, dose response (AID 624326).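 Further: rate of fluorescence rise from hydrolysis of a fluorogenic O-methyl fluorescein ester substrate.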 Type of assay: functional.

T7 sequence (P49327 whole entry): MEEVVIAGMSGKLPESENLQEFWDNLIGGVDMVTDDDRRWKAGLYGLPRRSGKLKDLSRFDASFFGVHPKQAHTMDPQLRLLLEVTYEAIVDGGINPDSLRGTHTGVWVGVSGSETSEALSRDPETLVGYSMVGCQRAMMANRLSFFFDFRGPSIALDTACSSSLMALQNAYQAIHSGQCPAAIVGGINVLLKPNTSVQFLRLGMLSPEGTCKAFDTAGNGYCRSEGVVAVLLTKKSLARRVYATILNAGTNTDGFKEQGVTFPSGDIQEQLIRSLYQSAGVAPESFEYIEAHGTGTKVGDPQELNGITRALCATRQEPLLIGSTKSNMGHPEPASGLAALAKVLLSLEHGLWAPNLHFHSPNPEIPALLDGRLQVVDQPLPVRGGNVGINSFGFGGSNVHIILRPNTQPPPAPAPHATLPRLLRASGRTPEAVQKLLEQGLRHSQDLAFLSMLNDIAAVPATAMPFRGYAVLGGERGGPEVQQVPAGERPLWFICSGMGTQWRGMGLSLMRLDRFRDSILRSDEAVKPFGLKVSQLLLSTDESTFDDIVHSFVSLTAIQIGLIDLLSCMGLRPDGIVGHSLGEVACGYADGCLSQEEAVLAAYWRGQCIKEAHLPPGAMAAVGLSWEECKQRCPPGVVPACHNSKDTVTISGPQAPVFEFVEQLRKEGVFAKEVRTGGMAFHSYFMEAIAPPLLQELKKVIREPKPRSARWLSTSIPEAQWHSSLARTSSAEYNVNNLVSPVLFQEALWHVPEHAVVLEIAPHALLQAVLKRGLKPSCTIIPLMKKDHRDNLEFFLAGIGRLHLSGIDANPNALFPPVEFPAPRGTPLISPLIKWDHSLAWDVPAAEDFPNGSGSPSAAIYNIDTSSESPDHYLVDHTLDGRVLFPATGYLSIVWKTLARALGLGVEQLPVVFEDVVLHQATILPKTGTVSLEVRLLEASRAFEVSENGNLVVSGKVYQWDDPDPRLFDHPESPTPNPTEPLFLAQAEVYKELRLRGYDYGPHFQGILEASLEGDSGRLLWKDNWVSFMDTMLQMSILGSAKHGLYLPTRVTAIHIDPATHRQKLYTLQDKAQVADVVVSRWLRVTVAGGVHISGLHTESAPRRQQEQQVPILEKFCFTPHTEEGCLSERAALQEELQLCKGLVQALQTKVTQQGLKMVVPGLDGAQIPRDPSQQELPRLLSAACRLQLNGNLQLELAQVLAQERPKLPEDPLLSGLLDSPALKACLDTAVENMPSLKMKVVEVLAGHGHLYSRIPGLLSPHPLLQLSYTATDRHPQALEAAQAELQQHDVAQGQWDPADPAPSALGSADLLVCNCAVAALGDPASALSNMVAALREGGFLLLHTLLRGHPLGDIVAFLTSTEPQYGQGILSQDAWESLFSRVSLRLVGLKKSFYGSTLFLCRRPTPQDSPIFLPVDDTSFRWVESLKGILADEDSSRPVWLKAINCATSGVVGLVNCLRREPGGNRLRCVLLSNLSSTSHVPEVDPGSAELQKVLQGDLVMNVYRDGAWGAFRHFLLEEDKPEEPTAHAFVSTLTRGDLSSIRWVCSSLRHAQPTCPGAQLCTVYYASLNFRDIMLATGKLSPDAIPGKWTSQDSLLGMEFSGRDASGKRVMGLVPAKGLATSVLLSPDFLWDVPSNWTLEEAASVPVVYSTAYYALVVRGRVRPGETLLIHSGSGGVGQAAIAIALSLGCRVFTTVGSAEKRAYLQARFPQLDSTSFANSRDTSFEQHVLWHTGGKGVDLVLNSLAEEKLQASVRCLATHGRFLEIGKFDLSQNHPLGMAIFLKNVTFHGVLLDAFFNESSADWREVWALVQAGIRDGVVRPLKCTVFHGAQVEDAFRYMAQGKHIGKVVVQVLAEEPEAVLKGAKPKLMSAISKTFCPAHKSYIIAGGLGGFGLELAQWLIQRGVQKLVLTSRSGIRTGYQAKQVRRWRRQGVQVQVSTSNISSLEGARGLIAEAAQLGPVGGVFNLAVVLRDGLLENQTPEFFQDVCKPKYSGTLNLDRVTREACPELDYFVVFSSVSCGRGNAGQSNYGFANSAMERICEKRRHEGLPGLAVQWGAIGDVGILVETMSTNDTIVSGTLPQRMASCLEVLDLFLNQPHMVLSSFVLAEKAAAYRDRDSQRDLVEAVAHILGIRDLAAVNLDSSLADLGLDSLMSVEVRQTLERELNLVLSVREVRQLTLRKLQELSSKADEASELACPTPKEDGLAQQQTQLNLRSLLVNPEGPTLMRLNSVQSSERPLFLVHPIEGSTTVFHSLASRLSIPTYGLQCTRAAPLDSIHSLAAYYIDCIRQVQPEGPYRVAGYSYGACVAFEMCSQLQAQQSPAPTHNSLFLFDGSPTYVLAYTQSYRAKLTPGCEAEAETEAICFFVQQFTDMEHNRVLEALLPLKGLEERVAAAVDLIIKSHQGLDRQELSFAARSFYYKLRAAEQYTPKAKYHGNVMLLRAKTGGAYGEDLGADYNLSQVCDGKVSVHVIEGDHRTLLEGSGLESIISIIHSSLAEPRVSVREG
Chain of Nonstructural protein 1 (Q194T2 whole entry): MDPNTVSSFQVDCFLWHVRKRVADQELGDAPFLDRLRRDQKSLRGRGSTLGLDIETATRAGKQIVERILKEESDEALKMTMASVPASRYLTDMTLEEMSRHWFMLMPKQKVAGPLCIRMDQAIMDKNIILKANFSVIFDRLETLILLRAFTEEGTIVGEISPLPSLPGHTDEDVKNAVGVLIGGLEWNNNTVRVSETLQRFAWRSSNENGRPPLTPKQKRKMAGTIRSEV

Regarding `COc1ccc(/C=C2\CCCC(C(=O)C(F)(F)F)=C2O)cc1`, the EC50 – broadly, the concentration giving half of the maximal effect – in assay [1] is 41.4 µM (active); in assay [2] it was 36 µM (inconclusive); in assay [3], 33.8 µM (inactive); in assay [4], > 99 µM (inactive).
Take `COc1ccc(-c2cc3nc4n(c(=O)c3s2)CCCCC4)cc1`: the IC50 (in the assay with HEK293; in assay [5]) was > 67.5 µM (inactive) throughout.
Regarding `COc1ccc(CN2CCC(n3nccc3NC(=O)CCc3ccccc3)CC2)c(C)c1C`, in [6], the EC50 was 2.11 µM (active).
Consider `CCOc1ccccc1NC(=O)Cn1cnc2c(cnn2-c2ccc(C)c(C)c2)c1=O`, for which the EC50 in assay [3] and in [4] was > 99 µM (inactive) throughout.
For the compound `CCN1C(=O)/C(=C2\C=Cc3cc(C)ccc3N2CC)OC1=S`, the results for the IC50 on Protein skinhead-1 and at Nonstructural protein 1 were > 100 µM (inactive) and > 100 µM (active), respectively.
On to `Cc1ccc2[nH]c(SCC(=O)Nc3cc(C(F)(F)F)ccc3N3CCOCC3)nc2c1`, for which, in assay [7], the IC50 – broadly, the concentration needed to halve the response being measured – was > 80 µM (inactive). Moreover, the EC50 in assay [8] was 5.2 µM (inconclusive); in assay [9], 27.9 µM (active).
`COCCN(C(S)=Nc1cccc(C)c1C)C(C)c1ccco1` (centres undefined): the IC50 (with HEK293; in assay [5]) was > 67.6 µM (inactive) each time.
In the case of `CCN1C(=O)/C(=C2\C=Cc3ccccc3N2CC)OC1=S`, the EC50 in assay [3] and in [4] was > 99 µM (inactive) throughout.
As for `CCOc1cnc(C(=O)NNC(=O)C(Br)C(C)C)o1` (centres undefined), the IC50 (in the assay on HEK293; in [5]) was > 67.5 µM (inactive) each time.
As for `COc1ccc(-c2[nH]ncc2CN2CCN(Cc3cccs3)CC2)cc1F`, the IC50 (in the assay with HEK293; in assay [5]) was > 67.5 µM (inactive) in each case.
Regarding `Oc1cc(-c2ccccc2)nc2cc(Cl)ccc12`, the concentration for a half-maximal effect (EC50) in assay [10] is 0.209 µM (active); in assay [11], 0.906 µM (inconclusive); with BJ [12] it was 1.04 µM (active); in the assay with BJ [13], 1.42 µM (inconclusive); in assay [8] it was 2.42 µM (inconclusive); in assay [9] it was 2.36 µM (active). Also, the EC50 in the assay with BJ [14] is 19.8 µM (active). Also, the IC50 in [7] is > 80 µM (inactive).
Take `O=[N+]([O-])c1ccc(N2CCCNCC2)c2ncccc12`: in assay [6], the EC50 is 0.008 µM (active).
For the compound `COc1ccc(/C=C2/CSC/C(=C/c3ccc(OC)c(OC)c3)C2=O)cc1OC`, the CC50 – broadly, the concentration that lowers cell viability or growth by half – in the assay on Vero was 8.1 µM (active).
Consider `COc1ccc(C(CNC(=O)c2cccc(S(=O)(=O)NCc3ccccc3)c2)N(C)C)cc1` (centres undefined), for which the EC50 in assay [6] is 0.421 µM (active).
As for `COc1ccccc1C(=O)NCc1nnc(SCC(=O)Nc2nccs2)n1C`, the IC50 (with HEK293; in [5]) was > 67.6 µM (inactive) throughout.
In the case of `Cc1cc(-c2ccccc2)nc(N/N=C/c2ccc([N+](=O)[O-])cc2)n1`, the values for the IC50 at Fatty acid synthase [15], on Fatty acid synthase [16] and on Nonstructural protein 1 were 8.37 µM (active), 6.41 µM (active) and > 100 µM (active), respectively.
In the case of `Cc1csc2c(N3CCN(C(=O)NC(C)(C)C)CC3)ncnc12`, the EC50 in [6] is 5.31 µM (active).
